# Patent US5480887A, “Protease inhibitors” (Eli Lilly and Company, priority 1994, dated 1996)
# Read-outs that look alike come from different tables or passages of the source.
# Legend:
# [1] = test system: HIV; assay: microbe, parasite or virus in culture; type: cell-based; conditions: XTT, 450 nm, * (n) = average of n assays, read-out: Antiviral Activity IC90
# Procedure: In addition, the compounds described in the present application may be tested using an antiviral cell culture assay as described in Weislow, O.S., J. of National Cancer Institute, 81(8), pages 577-586 (Apr. 19, 1989) herein incorporated by reference.
# This assay compares the viability of HIV-infected cells in a cell culture medium relative to the viability of such cells in the presence of a test compound. The concentration of test compound necessary to inhibit 90% of the virus is then measured using the viability of the cells as an indicator of viral inhibition. This assay is carried out using cell lines that are sensitive to the lyric effects of HIV infection.
# Specifically, this assay utilizes the metabolic reduction of a tetrazolium reagent, 2,3-bis[2-methoxy-4-nitro-5-sulfophenyl]-5-[(phenylamino)carbonyl]-2H-tetrazolium hydroxide (XTT). In the presence of a viable cell, the tetrazolium reagent, XTT, is reduced to provide XTT formazan which may be quantified using colorimetric determination (at 450 nm). The intensity of the chromogenic signal is directly proportional to the concentration of the XTT formazan, thus providing a measure of the quantity of viable cells.
# [2] = target: T1, HIV-1 Protease (Human immunodeficiency virus type 1 group M subtype B, UniProt P04585); assay: biochemical; conditions: for IC50: read-out: Fluorescence Assay IC50 (converted); for inhibition at 0.00016 µg/mL: read-out: % inhibition at the stated concentration (ICx (0.16))
# T1 construct: HIV-1 Protease
# Procedure: These compounds may be assayed using two assays: (1) an enzyme inhibition assay, and (2) an antiviral cell culture assay.
# This assay is described in detail in published European Patent Application (EPA) 0 526 009, herein incorporated by reference. Using this assay, a number of the compounds, prepared above, were assayed for HIV protease inhibitory activity.
# The assay is unable to test compounds at less than a concentration of 0.16 ng/mL.
# [3] = concentration inhibiting 90% of the viral-induced toxicity
# [4] = at 0.16 ng/mL, lowest testable concentration
# [5] = Human immunodeficiency virus 1, concentration inhibiting 90% of the viral-induced toxicity
# [6] = concentration inhibiting 50% of the enzyme, * = calculated average with n number of assays
Structure (SMILES),IC50 [2] [nM],"IC90 [1, 5] [nM]",further results
C[C@H]1[C@@H](OC(=O)N[C@@H](CSc2ccccc2)[C@H](O)CN2C[C@H]3CCS[C@H]3C[C@H]2C(=O)NC(C)(C)C)CCS1(=O)=O [31D-Fraction B],,,"IC90 [1, 3]: 31.4 nM"
"CC(C)(C)NC(=O)[C@@H]1C[C@@H]2SCC[C@@H]2CN1C[C@@H](O)[C@H](Cc1ccccc1)NC(=O)[C@@H](CS(=O)(=O)c1ccc2ccccc2c1)NC(=O)C(F)(F)F [Example 17C, N-t-Butyl-octahydro-5[2R-hydroxy-3S-phenylmethyl-4-aza-5-oxo-6S-N(trifluoromethylcarbonyl)amino-7-naphth-2-ylsulfonyl-heptyl]-(3aR,7aS)-thieno[3,2-c]pyridine-(6S)-carboxamide]",,31,"inhibition at 0.00016 µg/mL [2, 4]: 76%"
"CC(C)(C)NC(=O)[C@@H]1C[C@@H]2SCC[C@@H]2CN1C[C@@H](O)[C@H](Cc1ccccc1)NC(=O)[C@@H](CS(=O)(=O)c1ccc(F)cc1)NC(=O)C(F)(F)F [Example 19C, N-t-Butyl-octahydro-5[2R-hydroxy-3S-phenylmethyl-4-aza-5-oxo-6S-N(trifluoromethylcarbonyl)amino-7-p-fluorophenylsulfonyl-heptyl]-(3aR,7aS)-thieno[3,2-c]pyridine-(6S)-carboxamide]",1.16,52,inhibition at 0.00016 µg/mL [2]: 85%
CC(C)[C@@H]1SCC[C@@H]1OC(=O)N[C@@H](CSc1ccccc1)[C@H](O)CN1C[C@H]2CCS[C@H]2C[C@H]1C(=O)NC(C)(C)C [9B-23 mg sample],,604,"IC50 [2, 6]: 2.62 nM"
"CC(C)(C)NC(=O)[C@@H]1C[C@@H]2SCC[C@@H]2CN1C[C@@H](O)[C@H](Cc1ccccc1)NC(=O)[C@@H](CS(=O)(=O)c1ccc(F)cc1)NS(C)(=O)=O [Example 19B, N-t-Butyl-octahydro-5[2R-hydroxy-3S-phenylmethyl-4-aza-5-oxo-6S-N(methylsulfonyl)amino-7-p-fluorophenylsulfonyl-heptyl]-(3aR,7aS)-thieno[3,2-c]pyridine-(6S)-carboxamide]",,233,"IC50 [2, 6]: 0.224 nM"
C[C@@H]1[C@@H](OC(=O)N[C@@H](CSc2ccccc2)[C@H](O)CN2C[C@H]3CCS[C@H]3C[C@H]2C(=O)NC(C)(C)C)CCS1(=O)=O [34-Fraction A],7.28,45.2,
"CC(C)(C)NC(=O)[C@@H]1C[C@@H]2SCC[C@@H]2CN1C[C@@H](O)[C@H](Cc1ccccc1)NC(=O)[C@@H](CS(=O)(=O)c1cccc2cccnc12)NS(C)(=O)=O [Example 26, N-t-Butyl-octahydro-5[2R-hydroxy-3S-phenylmethyl-4-aza-5-oxo-6S-N(methylsulfonyl)amino-7-quinolin-8-ylsulfonyl-heptyl]-(3aR,7aS)-thieno[3,2-c]pyridine-(6S)-carboxamide]",0.389,225,
C[C@@H]1[C@H](OC(=O)N[C@@H](CSc2ccccc2)[C@H](O)CN2C[C@H]3CCS[C@H]3C[C@H]2C(=O)NC(C)(C)C)CCS1(=O)=O [31D-Fraction A],,,"IC90 [1, 3]: 30.3 nM"
CC(C)[C@H]1SCC[C@H]1OC(=O)N[C@@H](CSc1ccccc1)[C@H](O)CN1C[C@H]2CCS[C@H]2C[C@H]1C(=O)NC(C)(C)C [9B-24 mg sample],,78,"inhibition at 0.00016 µg/mL [2, 4]: 53%"
CC(=O)N[C@H](CS(=O)(=O)c1ccc2ccccc2c1)C(=O)N[C@@H](Cc1ccccc1)[C@H](O)CN1C[C@H]2CCS[C@H]2C[C@H]1C(=O)NC(C)(C)C [Example 28],2.67,21.8,
"CC(C)(C)NC(=O)[C@@H]1C[C@@H]2SCC[C@@H]2CN1C[C@@H](O)[C@H](Cc1ccccc1)NC(=O)[C@@H](CS(=O)(=O)c1cccc2cccnc12)NC(=O)C(F)(F)F [Example 24B, N-t-Butyl-octahydro-5[2R-hydroxy-3S-phenylmethyl-4-aza-5-oxo-6S-N(trifluoromethylcarbonyl)amino-7-quinolin-8-ylsulfonyl-heptyl]-(3aR,7aS)-thieno[3,2-c]pyridine-(6S)-carboxamide]",,81.8,
CC(C)[C@H]1[C@@H](OC(=O)N[C@@H](CSc2ccccc2)[C@H](O)CN2C[C@H]3CCS[C@H]3C[C@H]2C(=O)NC(C)(C)C)CCS1(=O)=O [10B-51 mg sample],0.95,77,
"CC(=O)N[C@H](CS(=O)(=O)c1ccc(F)cc1)C(=O)N[C@@H](CSc1ccccc1)[C@H](O)CN1C[C@H]2CCS[C@H]2C[C@H]1C(=O)NC(C)(C)C [Example 21B, N-t-Butyl-octahydro-5[2R-hydroxy-3R-phenylthiomethyl-4-aza-5oxo-6S-N(acetyl)amino-7-p-fluorophenylsulfonyl-heptyl]-(3aR,7aS)-thieno[3,2-c]pyridine-(6S)-carboxamide]",,78,"IC50 [2, 6]: 1.83 nM"
CC(C)(C)NC(=O)[C@@H]1C[C@@H]2SCC[C@@H]2CN1C[C@@H](O)[C@H](CSc1ccccc1)NC(=O)O[C@H]1CCS(=O)(=O)C1 [11C-6 mg sample],,29,"IC50 [2, 6]: 2 nM"
"CC(=O)N[C@H](CS(=O)(=O)c1cccc2cccnc12)C(=O)N[C@@H](Cc1ccccc1)[C@H](O)CN1C[C@H]2CCS[C@H]2C[C@H]1C(=O)NC(C)(C)C [Example 25, N-t-Butyl-octahydro-5[2R-hydroxy-3S-phenylmethyl-4-aza-5-oxo-6S-N(acetyl)amino-7-quinolin-8-ylsulfonyl-heptyl]-(3aR,7aS)-thieno[3,2-c]pyridine-(6S)-carboxamide]",0.239,279,
"CC(C)(C)NC(=O)[C@@H]1C[C@@H]2SCC[C@@H]2CN1C[C@@H](O)[C@H](CSc1ccccc1)NC(=O)[C@@H](CS(=O)(=O)c1ccc(F)cc1)NC(=O)C(F)(F)F [Example 29, N-t-Butyl-octahydro-5[2R-hydroxy-3R-phenylthiomethyl-4-aza-5-oxo-6S-N(trifluoromethylcarbonyl)amino-7-p-fluorophenylsulfonyl-heptyl]-(3aR,7aS)-thieno[3,2-c]pyridine-(6S)-carboxamide]",11.1,754,
CC(C)(C)NC(=O)[C@@H]1C[C@@H]2SCC[C@@H]2CN1C[C@@H](O)[C@H](CSc1ccccc1)NC(=O)O[C@@H]1CCS(=O)(=O)C1 [11C-11 mg sample],,26,"IC50 [2, 6]: 1.52 nM"
"CC(=O)N[C@H](CCS(C)(=O)=O)C(=O)N[C@@H](CSc1ccccc1)[C@H](O)CN1C[C@H]2CCS[C@H]2C[C@H]1C(=O)NC(C)(C)C [Example 15B, N-t-Butyl-octahydro-5[2R-hydroxy-3R-phenylthiomethyl-4-aza-5-oxo-6R-N(acetyl)amino-8-methylsulfonyl-octyl]-(3aR,7aS)-thieno[3,2-c]pyridine-(6S)-carboxamide]",,7630,"IC50 [2, 6]: 13.5 nM"
"CC(C)(C)NC(=O)[C@@H]1C[C@@H]2SCC[C@@H]2CN1C[C@@H](O)[C@H](Cc1ccccc1)NC(=O)[C@@H](CS(=O)(=O)c1ccc2ccccc2c1)NS(C)(=O)=O [Example 17B, N-t-Butyl-octahydro-5[2R-hydroxy-3S-phenylmethyl-4-aza-5-oxo-6S-N(methylsulfonyl)amino-7-naphth-2-ylsulfonyl-heptyl]-(3aR,7aS)-thieno[3,2-c]pyridine-(6S)-carboxamide]",,78,"inhibition at 0.00016 µg/mL [2, 4]: 60%"
"CC(C)[C@@H]1[C@H](OC(=O)N[C@@H](CSc2ccccc2)[C@H](O)CN2C[C@H]3CCS[C@H]3C[C@H]2C(=O)NC(C)(C)C)CCS1(=O)=O [Example 40D, N-t-Butyl-octahydro-5[2R-hydroxy-3R-N(1',1'-dioxo-2'R-isopropyl-tetrahydrothiophen-3'R-yloxycarbonyl)amino-4-phenylthio-)-butyl]-(3aR,7aS)-thieno[3,2-c] pyridine-(6S)-carboxamide methanesulfonate]",,7.1,
CC(C)(C)NC(=O)[C@@H]1C[C@@H]2SCC[C@@H]2CN1C[C@@H](O)[C@H](CSc1ccccc1)NC(=O)[C@H](CC(N)=O)NC(=O)c1ccc2ccccc2n1 [Example 14C],,28,

# Continued, in another order:
IC50 [2] [nM],Structure (SMILES),"IC90 [1, 5] [nM]",further results
0.358,"C[C@H]1[C@@H](OC(=O)N[C@@H](CSc2ccccc2)[C@H](O)CN2C[C@H]3CCS[C@H]3C[C@H]2C(=O)NC(C)(C)C)CCS1(=O)=O [Example 37D, N-t-Butyl-octahydro-5[2R-hydroxy-3R-N(1',1'-dioxo-2'S-methyl-tetrahydrothiophen-3'S-yloxycarbonyl)amino-4-phenylthio)-butyl]-(3aR,7aS)-thieno[3,2-c] pyridine-(6S)-carboxamide methanesulfonate]",,"IC90 [1, 3]: 1.8 nM"
7.28,"C[C@@H]1[C@H](OC(=O)N[C@@H](CSc2ccccc2)[C@H](O)CN2C[C@H]3CCS[C@H]3C[C@H]2C(=O)NC(C)(C)C)CCS1(=O)=O [Example 38D, N-t-Butyl-octahydro-5[2R-hydroxy-3R-N(1',1'-dioxo-2'R-methyl-tetrahydrothiophen-3'R-yloxycarbonyl)amino-4-phenylthio)-butyl]-(3aR,7aS)-thieno[3,2c] pyridine-(6S)-carboxamide methanesulfonate]",,"IC90 [1, 3]: 7.1 nM"
